Our source for the IC50 values is US10065948B2, “Histone deacetylase inhibitors and compositions and methods of use thereof” (CHDI Foundation, Inc., priority 2014, dated 2018).

SMILES strings stand for the structures.

In experiment [1] the target is Histone Deacetylase 4 (HDAC4) catalytic domain (Homo sapiens (Human), UniProt P56524). Put plainly: Biochemical HDAC inhibition assay, fluorogenic substrate Boc-Lys(Tfa)-AMC. Here is the method:
The potency of compounds is quantified by measuring the Histone Deacetylase 4 (HDAC4) catalytic domain enzymatic activity using the fluorogenic substrate, Boc-Lys(Tfa)-AMC. The substrate is deacetylated to Boc-Lys-AMC by HDAC4. Cleavage by trypsin results in the release of the fluorophore AMC from the deacetylated substrate. The fluorescence of the sample is directly related to the histone deacetylase activity in the sample.
Stocks of 60 μL aliquots of the 10 mM compound in DMSO are prepared and stored at −20° C. From one stock aliquot of each compound to be tested and the reference compound, a 16-point serial dilution is prepared according to Table 1 using a 125 μL 16-channel Matrix multi-channel pipette (Matrix Technologies Ltd).
2 μL (200×) of each diluted solution and each control (full activity: 100% DMSO alone or full inhibition 1 mM) is stamped into V-bottomed polypropylene 384-well compound plates using either the Bravo (384-well head from Agilent) or 12.5 μL 16-channel Matrix multi-channel pipette (Matrix Technologies Ltd). Each well with the 200× compound solution is diluted 1:20 by the addition of 38 μL assay buffer+DMSO (10.5% DMSO, 45 mM Tris-HCl, 123 mM NaCl, 2.4 mM KCl, and 0.9 mM MgCl2 at pH 8.0 and equilibrated to room temperature).
The HDAC4 catalytic domain enzyme is human catalytic domain HDAC4 protein (amino acids 648-1032) with a C-terminal 6× histidine tag, produced by BioFocus. A working solution of enzyme is prepared from a 500 μg/mL stock aliquot of HDAC4 catalytic domain (thawed on ice) diluted to 0.2 μg/mL with assay buffer (50 mM Tris-HCl, 137 mM NaCl, 2.7 mM KCl, and 1 mM MgCl2 at pH 8 and equilibrated to room temperature) just prior to the addition of the enzyme to the assay.
5× (50 μM) substrate is prepared just prior to the addition to the assay. A 1 mM substrate stock is made by diluting a 100 mM Boc-Lys(Tfa)-AMC in DMSO solution 1:100 by adding it drop-wise to assay buffer (equilibrated to room temperature) while vortexing at slow speed to prevent precipitation. The 5× substrate is prepared by diluting the 1 mM substrate solution 1:20 by adding it drop-wise to assay buffer (equilibrated to room temperature) while vortexing at slow speed to prevent precipitation.
3× (30 μM) Developer/Stop Solution is prepared just prior to addition to the plate by diluting a stock solution of 10 mM reference compound 1:333 in 25 mg/mL trypsin (PAA Laboratories Ltd.) equilibrated to room temperature.
5 μL of each solution of 1:20 diluted compound from above is transferred to a clear bottomed, black, 384-well assay plate using the Bravo or the Janus (384-well MDT head from Perkin Elmer). Using a 16-channel Matrix multi-channel pipette, 35 μL of the working solution of HDAC4 catalytic domain enzyme (0.2 μg/mL in assay buffer) is transferred to the assay plate. […] The assay plate is then shaken for two minutes on an orbital shaker at 900 rpm (rotations per minute). Next the plate is incubated for 15 minutes at 37° C. The reaction is stopped by adding 25 μL of 3× (30 μM) developer/stop solution to the assay plates using either the Bravo, Janus or a 16-channel Matrix multi-channel pipette. Assay plates are then shaken for 5 minutes on an orbital shaker at 1200 rpm. Next, the assay plates are incubated at 37° C. for 1 hour in a tissue culture incubator. Finally, the fluorescence is measured (Excitation: 355 nm, Emission: 460 nm) using PerkinElmer EnVision in top read mode.

Experiment [2] relates to cellular histone deacetylase activity (Lys-Ac). Put plainly: Inhibition of cellular HDAC activity (Cell Lys-Ac). Type of experiment: cell-based. Particulars: Lys-Ac substrate.
Experiment [3] concerns cellular histone deacetylase enzymatic activity in Jurkat E6-1 cells. As to the kind of experiment: Inhibition of cellular HDAC activity, Boc-Lys(Tfa)-AMC substrate (Cell Lys-TFA). Type of experiment: cell-based. Here is the method: The potency of the compounds is quantified by measuring the cellular histone deacetylase enzymatic activity using the fluorogenic substrate, Boc-Lys(Tfa)-AMC. After penetration in Jurkat E6-1 cells, the substrate is deacetylated to Boc-Lys-AMC. After cell lysis and cleavage by trypsin, the fluorophore AMC is released from the deacetylated substrate only. The fluorescence of the sample is directly related to the histone deacetylase activity in the sample.
Jurkat E6.1 cells are cultured according to standard cell culture protocols in Jurkat E6.1 Growth Media (RPMI without phenol red, 10% FBS, 10 mM HEPES, and 1 mM Sodium Pyruvate). Jurkat E6.1 cells are counted using a Coulter Counter and resuspended in Jurkat E6.1 growth media at a concentration of 75,000 cells/35 μL. 35 μL or 75,000 cells is seeded into Greiner microtitre assay plates. The plates are then incubated at 37° C. and 5% CO2 while other assay components are being prepared.
Stocks of 70 μL aliquots of the 10 mM compound in DMSO are prepared and stored at −20° C. From one stock aliquot of each compound to be tested and the reference compound, a 16-point serial dilution is prepared according to Table 1 using a 125 μL 16-channel Matrix multi-channel pipette.
2 μL (200×) of each diluted solution and each control (full activity: 100% DMSO alone or full inhibition 1 mM) is stamped into V-bottom polypropylene 384-well compound plates using either the Bravo, Janus, or 12.5 μL 16-channel Matrix multi-channel pipette. Each well with the 200× compound solution is diluted 1:20 by the addition of 38 μL Jurkat assay buffer+DMSO (9.5% DMSO, RPMI without phenol red, 0.09% FBS, 9 mM Hepes, and 0.9 mM Sodium Pyruvate equilibrated to room temperature)
5× (500 μM) substrate is prepared just prior to the addition to the assay. The 5× substrate is prepared by diluting a 100 mM Boc-Lys(Tfa)-AMC in DMSO solution 1:200 by adding it drop-wise to Jurkat assay medium (RPMI without phenol red, 0.1% FBS, 10 mM Hepes, and 1 mM Sodium Pyruvate equilibrated to 37° C.) while vortexing at slow speed to prevent precipitation.
10 mL of 3× lysis buffer is prepared with 8.8 ml of 3× stock lysis buffer (50 mM Tris-HCl, pH 8.0, 137 mM NaCl, 2.7 mM KCl, 1 mM MgCl2, 1% Nonidet P40 Substitute equilibrated to room temperature) and 1.2 mL of 3 mg/mL Trypsin equilibrated to room temperature.
5 μL of each solution of 1:20 diluted compound from above is transferred to the Greiner microtitre assay plates with 75,000 cells/well using the Bravo. Cells are then incubated for 2 hours at 37° C. and 5% CO2. […] The cells are then incubated for 3 hours at 37° C. and 5% CO2. Next, 25 μL of 3× lysis buffer is added to each well using either the 125 μL 16 channel pipette or the Bravo. The assay plate is then incubated overnight (15-16 hours) at 37° C. and 5% CO2. The following day, the plates are shaken on an orbital shaker for 1 minute at 900 rpm. Finally the top read fluorescence (Excitation: 355 nm, Emission: 460 nm) is measured using PerkinElmer EnVision.

[4] abbreviates: Homo sapiens, Jurkat E6.1, Lys-TFA substrate.

Sequence of Histone Deacetylase 4 (HDAC4) catalytic domain (P56524 648-1032): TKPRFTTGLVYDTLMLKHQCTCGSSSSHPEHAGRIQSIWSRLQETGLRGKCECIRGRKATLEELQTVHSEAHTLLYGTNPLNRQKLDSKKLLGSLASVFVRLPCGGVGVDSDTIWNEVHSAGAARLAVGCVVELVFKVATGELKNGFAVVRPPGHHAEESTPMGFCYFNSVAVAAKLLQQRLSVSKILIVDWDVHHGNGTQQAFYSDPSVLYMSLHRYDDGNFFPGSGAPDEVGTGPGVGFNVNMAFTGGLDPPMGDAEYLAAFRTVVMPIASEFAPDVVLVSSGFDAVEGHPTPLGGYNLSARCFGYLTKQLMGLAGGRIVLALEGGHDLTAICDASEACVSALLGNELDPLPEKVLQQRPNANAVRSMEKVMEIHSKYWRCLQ

The IC50 is the concentration that inhibits the measured activity by half. Turning to `Cc1ccccc1-c1nc2c(s1)[C@](C(=O)NO)(c1cccc(F)c1C)CC2` [Example 73, (S)-6-(3-Fluoro-2-methylphenyl)-N-hydroxy-2-(o-tolyl)-5,6-dihydro-4H-cyclopenta[d]thiazole-6-carboxamide], the concentration for half-maximal inhibition (IC50) in experiment [1] was 143 nM; in experiment [2] it was over 50000 nM; in experiment [3] (setting [4]), 630 nM.
On the same counts, the results for `Cc1c(F)cccc1[C@]1(C(=O)NO)Cc2cnc(-c3ccccc3Cl)nc2C1` [Example 48, (S)-2-(2-Chlorophenyl)-6-(3-fluoro-2-methylphenyl)-N-hydroxy-6,7-dihydro-5H-cyclopenta[d]pyrimidine-6-carboxamide] are 156 nM, over 50000 nM and 60 nM.
On the same counts, the results for `Cc1c(F)cccc1C1(C(=O)NO)CCc2cn(CC(F)(F)F)nc2CC1` (single isomer, unassigned) [Example 84, E1-(abs)-6-(3-Fluoro-2-methylphenyl)-N-hydroxy-2-(2,2,2-trifluoroethyl)-2,4,5,6,7,8-hexahydrocyclohepta[c]pyrazole-6-carboxamide] are 480 nM, over 50000 nM and 1400 nM.
As for `Cc1c(F)cccc1[C@]1(C(=O)NO)Cc2nn(C)c(-c3ccc(F)cc3)c2C1` [Example 79, (R)-5-(3-Fluoro-2-methylphenyl)-3-(4-fluorophenyl)-N-hydroxy-2-methyl-2,4,5,6-tetrahydrocyclopenta[c]pyrazole-5-carboxamide], the results for the 50% inhibitory concentration (IC50) in experiment [1], in experiment [2] and in experiment [3] (setting [4]) were 53 nM, 36500 nM and 26 nM, respectively.
Taken in the same sequence, the figures for `Cc1c(F)cccc1C1(C(=O)NO)CCc2cnc(C3CC3)nc2CC1` (stereo not drawn) [Example 83, 2-Cyclopropyl-7-(3-fluoro-2-methylphenyl)-N-hydroxy-6,7,8,9-tetrahydro-5H-cyclohepta[d]pyrimidine-7-carboxamide] were 1300 nM, over 50000 nM and 490 nM.
On the same counts, the results for `Cc1c(F)cccc1[C@]1(C(=O)NO)CCc2c1cnn2Cc1ccccc1` [Example 93, (R)-1-benzyl-4-(3-fluoro-2-methylphenyl)-N-hydroxy-1,4,5,6-tetrahydrocyclopenta[c]pyrazole-4-carboxamide] are 27 nM, over 50000 nM and 170 nM.
With `Cc1c(F)cccc1C1(C(=O)NO)CCc2nc(-c3ccccc3)ncc2C1` (stereo not drawn) [Example 47, 6-(3-Fluoro-2-methylphenyl)-N-hydroxy-2-phenyl-5,6,7,8-tetrahydroquinazoline-6-carboxamide], the values for the IC50 in experiment [1], in experiment [2] and in experiment [3] (setting [4]) were 3200 nM, over 50000 nM and 1100 nM, respectively.
On the same counts, the results for `O=C(NO)C1(c2ccccc2)CCc2cn(CC(F)(F)F)nc2CC1` (stereo not drawn) [Example 86, N-Hydroxy-6-phenyl-2-(2,2,2-trifluoroethyl)-2,4,5,6,7,8-hexahydrocyclohepta[c]pyrazole-6-carboxamide] are 8200 nM, over 50000 nM and 46700 nM.
Regarding `Cc1cccc(C)c1-n1ncc2c1C[C@](C(=O)NO)(c1cccc(F)c1C)C2` [Example 13, (S)-1-(2,6-Dimethylphenyl)-5-(3-fluoro-2-methylphenyl)-N-hydroxy-1,4,5,6-tetrahydrocyclopenta[c]pyrazole-5-carboxamide], the IC50 in experiment [1] was 27 nM; in experiment [2], over 50000 nM; in experiment [3] (setting [4]) it was 12 nM.
On the same counts, the results for `Cc1c(F)cccc1[C@]1(C(=O)NO)Cc2cnn(-c3cccc(F)c3)c2C1` [Example 6, (S)-5-(3-Fluoro-2-methylphenyl)-1-(3-fluorophenyl)-N-hydroxy-1,4,5,6-tetrahydrocyclopenta[c]pyrazole-5-carboxamide] are 44 nM, over 50000 nM and 67 nM.
Taken in the same sequence, the figures for `Cc1c(F)cccc1C1(C(=O)NO)CCc2ncncc2C1` (stereo not drawn) [Example 45, 6-(3-Fluoro-2-methylphenyl)-N-hydroxy-5,6,7,8-tetrahydroquinazoline-6-carboxamide] were 3700 nM, over 50000 nM and 2600 nM.
On the same counts, the results for `Cc1c(F)cccc1C1(C(=O)NO)CCc2nc(C3CC3)sc2C1` (stereo not drawn) [Example 42, 2-Cyclopropyl-6-(3-fluoro-2-methylphenyl)-N-hydroxy-4,5,6,7-tetrahydrobenzo[d]thiazole-6-carboxamide] are 770 nM, over 50000 nM and 320 nM.
Regarding `Cc1c(F)cccc1[C@]1(C(=O)NO)CCc2nn(Cc3ccccc3F)cc21` [Example 95, (R)-4-(3-fluoro-2-methylphenyl)-2-(2-fluorobenzyl)-N-hydroxy-2,4,5,6-tetrahydrocyclopenta[c]pyrazole-4-carboxamide], the concentration for half-maximal inhibition (IC50) is 710 nM in experiment [1], over 50000 nM in experiment [2] and 2980 nM in experiment [3] (setting [4]).
`Cc1cc(F)ccc1-c1nc2c(s1)CC(C(=O)NO)(c1cccc(F)c1C)C2` (single isomer, unassigned) [Example 75, E2-(abs)-5-(3-Fluoro-2-methylphenyl)-2-(4-fluoro-2-methylphenyl)-N-hydroxy-5,6-dihydro-4H-cyclopenta[d]thiazole-5-carboxamide]: the values for the IC50 in experiment [1], in experiment [2] and in experiment [3] (Lys-TFA substrate) were 270 nM, over 50000 nM and 51 nM, respectively.
